Measurements from the supplement of paper PMC10307832.

Key:
Experiment in all cases: relative viability (nuclei count vs DMSO), 5 days (fraction); higher = more cells survive
[1] = compound: C#Cc1cccc(Nc2ncnc3cc(OC)c(OCCCCCCC(=O)NO)cc23)c1 [CUDC-101] + CCNC(=O)c1noc(-c2cc(C(C)C)c(O)cc2O)c1-c1ccc(CN2CCOCC2)cc1 [Luminespib] (partner 0.01 µM)
Outline: (§1)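 Lung cancer cell lines in 1536-well plates were dosed by pin tool the day after seeding, either with one drug alone or with a fixed anchor-drug dose plus five library-drug doses (not always all listed) in √10 steps. After 5 days, cells were fixed and their nuclei stained in one step (final 0.05% Triton X-100, 1% formaldehyde, 1 ug/ml Hoechst), then counted on 4× images. Relative viability is the nuclei count in treated wells divided by that in vehicle wells. Values are medians of duplicate plates.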

[2] = compound: C#Cc1cccc(Nc2ncnc3cc(OC)c(OCCCCCCC(=O)NO)cc23)c1 [CUDC-101] + COc1cccc2cc(-c3nc([C@H]4CC[C@H](C(=O)O)CC4)n4ncnc(N)c34)[nH]c12 [OSI-027] (partner 0.5 µM)
Outline: as §1

[3] = compound: C#Cc1cccc(Nc2ncnc3cc(OC)c(OCCCCCCC(=O)NO)cc23)c1 [CUDC-101] + CS(=O)(=O)CCNCc1ccc(-c2ccc3ncnc(Nc4ccc(OCc5cccc(F)c5)c(Cl)c4)c3c2)o1 [Lapatinib] (partner 2 µM)
Outline: as §1

[4] = compound: C#Cc1cccc(Nc2ncnc3cc(OC)c(OCCCCCCC(=O)NO)cc23)c1 [CUDC-101] + Cc1nc(Nc2ncc(C(=O)Nc3c(C)cccc3Cl)s2)cc(N2CCN(CCO)CC2)n1 [Dasatinib] (partner 0.075 µM)
Outline: as §1

UMC-11 showed a relative viability ([1]; first compound 0.01 µM) of 1.22, a relative viability ([1]; first compound 0.03162 µM) of 0.879 and a relative viability ([1]; first compound 0.1 µM) of 1.03. For the same cell line, the relative viability ([1]; first compound 0.3162 µM) was 0.43, the relative viability ([1]; first compound 1 µM) was 0.165 and the relative viability ([2]; first compound 0.01 µM) was 0.505. It also gave a relative viability ([2]; first compound 0.03162 µM) of 0.521, a relative viability ([2]; first compound 0.1 µM) of 0.426 and a relative viability ([2]; first compound 0.3162 µM) of 0.172. The relative viability ([2]; first compound 1 µM) was 0.105, the relative viability ([3]; first compound 0.01 µM) was 1.05 and the relative viability ([3]; first compound 0.03162 µM) was 0.968. It also gave a relative viability ([3]; first compound 0.1 µM) of 0.724, a relative viability ([3]; first compound 0.3162 µM) of 0.711 and a relative viability ([3]; first compound 1 µM) of 0.126. The relative viability ([4]; first compound 0.01 µM) was 0.436, the relative viability ([4]; first compound 0.03162 µM) was 0.406 and the relative viability ([4]; first compound 0.1 µM) was 0.35. It also gave a relative viability ([4]; first compound 0.3162 µM) of 0.227 and a relative viability ([4]; first compound 1 µM) of 0.0988.
